# Source: patent US9051248B2, “Methods, compounds, and compositions for delivering 1,3-propanedisulfonic acid” (BHI Limited Partnership, priority 2009, dated 2015)
# Read-outs that look alike come from different tables or passages of the source.
# Experiments:
# [1] = Simulated gastric fluid (SGF) stability; format: in vitro ADME; conditions: SGF pH 1.5 with pepsin, 37° C.
# Method: (§1) The objective of this test was to determine the stability of the prodrugs in simulated gastric fluid (SGF) and water at 37° C. up to 2 hours and in water at room temperature up to 24 hours.
# (§2) Simulated gastric fluid and water samples were incubated in a shaking water bath at 37° C. for up to 2 hours. The compound (prodrug) was added at Time-point 0. At each selected time point (refer to table), sample aliquots were withdrawn and analyzed to determine the concentration of 1,3-propanedisulfonic acid (1,3PDS). The concentrations of 1,3PDS were calculated based on their respective peak area. The % appearance of 1,3PDS was determined by the amounts of compound determined at each time point compared to nominal concentration (100%) of 1,3PDS generated by 100% of the prodrug (equivalent concentration).
# Amounts of 0.2 g of sodium chloride and 0.32 g of pepsin were weighted and transferred into a 100-mL volumetric flask. Approximately 50 mL of deionized water was added and the mixture well mixed. A volume of 700 μL of hydrochloric acid was added, and the volume completed to 100 mL with deionized water. The resulting mixture was transferred in a polypropylene bottle and pH measured (pH=1.5).
# A fresh stock solution at approximately 2 mg/mL of the compound was prepared. One stability solution at 200 μg/mL in the SGF was prepared (sample referred to as Tube A). […] Immediately after preparation, each 200 μg/mL solution was diluted in triplicates to 20 μg/mL in deionized water and analyzed using LC-MS/MS method (Time-point 0). […] At each specific time point of incubation, 3 aliquots (triplicate) of 50 μL were removed, diluted in 450 μL of water and analyzed using LC-MS/MS method. […]
# (§3) The concentrations of 1,3PDS were calculated based on response of the reference samples and their respective peak area response. The % appearance of 1,3PDS was determined by the amounts of compound determined at each time point compared to expected nominal concentration (100%) of 1,3PDS generated by 100% of the prodrug (equivalent concentration).
# [2] = Human whole blood stability; format: in vitro ADME; conditions: fresh human whole blood, 37° C.; for Conversion to 1,3PDS (% by molar ratio) 0 h: about 100 μg/mL
# Method: The objective of this test was to determine the stability of the prodrugs in fresh human whole blood at different time-points (0, 0.5, 1, 4, 24 hours). Blood samples were incubated in a shaking water bath at 37° C. for up to 24 hours. The compound (prodrug) was added at Time-point 0, and sample aliquots were withdrawn and analyzed at each time point to determine the concentration of 1,3PDS. If possible, the loss of compound was determined by the amounts of compound determined at each time point compared to the amount determined at Time-point 0. To eliminate the conversion due to the matrix, a special Time-point 0 was prepared in pre-extracted blood sample.
# Approximately 2.5 mL of whole blood was incubated in a gently shaking water bath at 37° C. for 15 minutes. Two (2) mL of the pre-incubated whole blood were aliquoted in an eppendorf tube. A 100 μL aliquot of blood was removed and 100 μL of the compound Stock Solution was added. The solution was mixed by inversion. This sample was referred to as Tube A. The final concentration of the compound in tube A was approximately at 100 μg/mL. Immediately after mixing, 100 μL of Tube A was aliquotted into 3 different eppendorf tubes. These samples were extracted as described in the “Extraction Procedure” Section. These samples were referred to Time-point 0. Thereafter, the incubation of Tube A was continued in the shaking water bath at 37° C. for 0.5, 1, 4 and 24 hours. At each specific time point of incubation, aliquots (triplicate) of 100 μL were removed and extracted as described in the “Extraction Procedure” Section. To avoid potential further degradation of compound and/or possible degradation products, the aliquot extracts were kept on ice until analysis. After extraction, samples were analyzed using LC-MS/MS method.
# A volume of 300 μL of cold-ice acetonitrile was added to a 1.5 mL eppendorf tube and kept on ice until utilization. 100 μL of the sample to be extracted was added and the mix was vortexed (acetonitrile and blood). The sample was centrifuged at 16250×g (13200 rpm on IEC centrifuge with eppendorf rotor) for 5 minutes. A volume of 250 μL of the supernatant was transferred to another tube and evaporated to dryness under a nitrogen stream. The residue was reconstituted with the mobile phase. This sample was then analyzed according to 1,3PDS specific methods.
# as §3, with “the nominal concentration” for “response”, “calibration standards” for “reference samples”, “ratio. A linear regression using a weight of 1/x^2 is used to derive the concentration of 1,3PDS.” for “response.”, “to” for “to expected”
# [3] = Water stability (conversion of prodrug to 1,3PDS); format: physicochemical; conditions: deionized water; for Conversion to 1,3PDS (%) 1 h / Conversion to 1,3PDS (%) 2 h: 37° C.; for Conversion to 1,3PDS (%) 0 h / Conversion to 1,3PDS (%) 24 h: room temperature; for Conversion to 1,3PDS (%) 0 h: 200 μg/mL
# Method: as §1, §2
# A fresh stock solution at approximately 2 mg/mL of the compound was prepared. One stability solution at 200 μg/mL in the SGF was prepared (sample referred to as Tube A). A stability solution at 200 μg/mL in deionized water was prepared (sample referred to as Tube B). Immediately after preparation, each 200 μg/mL solution was diluted in triplicates to 20 μg/mL in deionized water and analyzed using LC-MS/MS method (Time-point 0). Thereafter, the incubation of tubes A and B was continued in the shaking water bath at 37° C. for 1 and 2 hours while one aliquot of tube B was kept at room temperature for 24 hours. At each specific time point of incubation, 3 aliquots (triplicate) of 50 μL were removed, diluted in 450 μL of water and analyzed using LC-MS/MS method. In parallel, 3 reference samples of 1,3PDS at 100, 10 and 1 μg/mL were prepared, diluted in triplicate in water and injected at the beginning and at the end of the batch. These samples were considered as reference samples.
# as §3
# [4] = PK study in rats (1,3PDS plasma AUC after oral administration of prodrugs); conditions: rat plasma, oral gavage, dose molar equivalent to 100 mg/kg 1,3PDS(2Na)
# Method: (§4) For 1,3PDS(2Na), the concentration in the dosing formulation was standardized to such a level that the dose would be 100 mg/kg (or 0.4 mmol/kg) for in vivo protocol specified dosing volume in a particular animal species. For a prodrug, the weight of sample in the dosing formulation varied based on molecular weight in such a way that equimolar dose (0.4 mmol/kg) for all the prodrugs would be administered when given same volume of dosing formulation to the animals. The dosing volume used for was 10 mL/kg for rats and monkeys, and 5 mL/kg for ferrets; or the concentration of dosing formulation was 0.04 mmol/mL for rats and monkeys, and 0.08 mmole/mL for ferrets. The vehicles used can either be water, 0.5% Methocel™ in water or 2% benzyl alcohol in corn oil. The dosing solution can either be a solution, a suspension or an emulsion. For different levels of doses, the amounts of the compounds used in the dosing formulation preparation were adjusted accordingly.
# (§5) One group of four male Sprague-Dawley rats of age 7-9 weeks (body weight of 200-300 g) were fasted for 15 to 17 h before being dosed through oral gavage administration with the dosing solution/suspension prepared from test compounds according to Example 40 at a dose specified in Table 5 in a concentration adjusted to a dosing volume of 10 ml/kg-body weight. Food was supplied two hours post dose. Blood samples (200 μL blood) were collected into Sarstedt micro tubes (EDTA K3E/0.5 mL) from the jugular vein of each animal (4 animals/group) at pre-dose and at the following time-points of post-dose: 15 min., 30 min., 1 h, 2 h, 4 h, 6 h, 8 h, 12 h, and 24 h. The collected blood samples were kept on ice and then centrifuged at 4° C. at a minimum speed of 3000 rpm (1620G) for 10 min to prepare the plasma samples. The plasma samples were stored at −80° C. until analysis. An aliquot of dosing formulation was also taken prior to the dosing and stored at −20° C. for analysis.
# (§6) 1,3PDS was extracted from an aliquot of rat, mouse, ferret or monkey plasma using protein precipitation and then injected into a liquid chromatograph equipped with a tandem mass spectrometry detector. Quantification was done by peak area ratio method. A weighted (1/X^2) linear regression was performed to back calculate the concentration of the analyte.
# (§7) For the various pharmacokinetic studies conducted in rats, ferrets and monkeys, plasma (and blood) concentration-time data for the prodrug and 1,3PDS were analyzed by non-compartmental analysis (NCA) using the software program WinNonlin® Professional Version 5.2.1. In order to conduct the NCA, at least 3 measurable concentrations had to be available in a concentration-time profile. The following pharmacokinetic parameters were determined for plasma (or blood) data: Cmax, Tmax, AUC0-Tlast, AUC0-∞, λz, and T1/2. Since the prodrugs and 1,3PDS were administered at equimolar doses, the effect of the prodrugs on the bioavailability of 1,3PDS was assessed by comparing the Cmax and AUC of 1,3PDS after administering a prodrug with that after administering 1,3PDS.
# [5] = rat, in vivo, po, 100 mg/kg
# Method: as §4, §5, §6, §7
# [6] = vehicle 2 0.5% Methocel in water
smiles,measurement,setting,value
COC(=O)c1ccccc1OS(=O)(=O)CCCS(=O)(=O)O [A32(Na)],"Conversion to 1,3PDS (%) 0 h",[1]; 0 h,0.0%
same,"Conversion to 1,3PDS (%) 1 h",[1]; 1 h,0.0%
same,"Conversion to 1,3PDS (%) 2 h",[1]; 2 h,0.0%
same,"Conversion to 1,3PDS (% by molar ratio) 0.5 h",[2],0.1 % by molar ratio
same,"Conversion to 1,3PDS (% by molar ratio) 1 h",[2],0.2 % by molar ratio
same,"Conversion to 1,3PDS (% by molar ratio) 4 h",[2],0.4 % by molar ratio
same,"Conversion to 1,3PDS (% by molar ratio) 24 h",[2],2.0 % by molar ratio
same,"Conversion to 1,3PDS (% by molar ratio) 0 h",[2],0.1 % by molar ratio
same,"Conversion to 1,3PDS (%) 1 h",[3],0.1%
same,"Conversion to 1,3PDS (%) 2 h",[3],0.1%
same,"Conversion to 1,3PDS (%) 0 h",[3],0.0%
same,"Conversion to 1,3PDS (%) 24 h",[3],0.0%
same,"1,3PDS AUC0-Tlast",[4]; vehicle 1 water,1097 ng·h/mL
CCOP(=O)(OCC)OCC(C)(C)COS(=O)(=O)CCCS(=O)(=O)[O-].[Na+] [A66(Na)],"1,3PDS AUC0-Tlast",[4]; [6],BLLQ
CC(CO)(CO)COS(=O)(=O)CCCS(=O)(=O)O [A68(Na)],"1,3PDS AUC0-Tlast",[4]; [6],BLLQ
CC(C)(C#N)COS(=O)(=O)CCCS(=O)(=O)OCC(C)(C)C#N [Compound B71],"1,3PDS AUC0-Tlast",[4]; [6],BLLQ
CC(C)(COS(=O)(=O)CCCS(=O)(=O)OCC(C)(C)[N+](=O)[O-])[N+](=O)[O-] [Compound B72],"1,3PDS AUC0-Tlast",[5],BLLQ
CC(C)(C)C(C#N)OS(=O)(=O)CCCS(=O)(=O)OC(C#N)C(C)(C)C (stereo not shown) [Compound B84],"1,3PDS AUC0-Tlast","[5]; male, Sprague-Dawley",2953 ng·h/mL
O=S1(=O)CCCS(=O)(=O)O1 [Compound C1],"Conversion to 1,3PDS (% by molar ratio) 0.5 h",[2],AULQ
same,"Conversion to 1,3PDS (% by molar ratio) 1 h",[2],AULQ
same,"Conversion to 1,3PDS (% by molar ratio) 4 h",[2],AULQ
same,"Conversion to 1,3PDS (% by molar ratio) 24 h",[2],AULQ
same,"Conversion to 1,3PDS (% by molar ratio) 0 h",[2],AULQ
same,"Conversion to 1,3PDS (%) 1 h",[3],57.3%
same,"Conversion to 1,3PDS (%) 2 h",[3],63.1%
same,"Conversion to 1,3PDS (%) 0 h",[3],50.3%
same,"Conversion to 1,3PDS (%) 24 h",[3],61.2%
O=S(O)CCCS(=O)O [P1(2Na)],"1,3PDS AUC0-Tlast",[4]; [6],BLLQ
